Data: article PMC12395807, “Chemoreceptor family in plant-associated bacteria responds preferentially to the plant signal molecule glycerol 3-phosphate” (Genome Biology, 2025)

Key:
[1] = target: LBD of chemoreceptor R4 (WP_158281851.1) (Rivihabitans pingtungensis, UniProt A0A318KJN4); experiment: ITC binding to R4-LBD; design: species or system Rivicola pingtungensis; conditions: 20 °C, Nb = no binding
Protocol: (§1) Plasmids for the overexpression of the different proteins were transformed into E. coli BL21(DE3). The resulting strains were grown under continuous stirring (200 rpm) at 30 °C in 2-L Erlenmeyer flasks containing 500 mL of LB medium supplemented with 50 μg/mL kanamycin. At an OD660 of 0.5, protein expression was induced by the addition of 0.1 mM isopropyl β-D-1-thiogalactopyranoside. Growth was continued at 16 °C overnight prior to cell harvesting by centrifugation at 10,000 × g for 20 min. Cell pellets were resuspended in buffer A (Additional file 2: Table S4) and subsequently broken by French press treatment at 62.5 lb/in^2. After centrifugation at 20,000 × g for 30 min, the supernatants were loaded onto 5-mL HisTrap HP columns (Amersham Biosciences) equilibrated with buffer A, and the proteins were eluted with a linear gradient of buffer B (Additional file 2: Table S4). All proteins contain a hexa-histidine tag at the N-terminal extension (Additional file 2: Table S3) and were purified at 4 °C. The purified proteins were dialyzed overnight into the corresponding analysis buffers (Additional file 2: Table S4) for immediate analysis.
(§2) All experiments were conducted on a VP microcalorimeter (Microcal, MA) at 15 °C for PacP-LBD and at 20 °C for the remaining proteins. Proteins were dialyzed into the analysis buffers specified in Additional file 2: Table S4, placed into the sample cell and titrated with aliquots of ligand solutions (1 to 10 mM) freshly prepared in dialysis buffer. The mean enthalpies measured from the injection of the ligands into the analysis buffer were subtracted from the raw titration data prior to data analysis with the MicroCal version of ORIGIN. The data were fitted with the “One binding site model” of ORIGIN.

[2] = target: LBD of chemoreceptor R5 (WP_028444678.1); experiment: ITC binding to R5-LBD; design: species or system Chitinimonas koreensis; conditions: 20 °C, Nb = no binding
Protocol: as §1, §2

[3] = target: LBD of chemoreceptor R7 (WP_019915375.1); experiment: ITC binding to R7-LBD; design: species or system Methyloversatilis discipulorum; conditions: 20 °C, Nb = no binding
LBD of chemoreceptor R7 (WP_019915375.1), sequence (as listed by the source): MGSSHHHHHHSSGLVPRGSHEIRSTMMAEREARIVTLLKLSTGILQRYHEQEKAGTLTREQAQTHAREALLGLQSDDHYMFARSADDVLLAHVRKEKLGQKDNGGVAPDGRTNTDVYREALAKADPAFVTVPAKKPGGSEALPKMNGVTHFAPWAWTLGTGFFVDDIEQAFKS
Protocol: as §1, §2

[4] = target: LBD of chemoreceptor R9 (WP_189529961.1) (Paludibacterium paludis, UniProt A0A918NWY2); experiment: ITC binding to R9-LBD; conditions: 20 °C, Nb = no binding
LBD of chemoreceptor R9 (WP_189529961.1), sequence (A0A918NWY2 entry or part of it): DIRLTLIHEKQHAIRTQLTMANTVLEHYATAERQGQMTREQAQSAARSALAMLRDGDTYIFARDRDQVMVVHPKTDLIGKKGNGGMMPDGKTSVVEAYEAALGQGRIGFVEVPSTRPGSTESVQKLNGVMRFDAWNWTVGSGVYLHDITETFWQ
Protocol: as §1, §2

[5] = tested on: R2 LBD (WP_136157342.1); experiment: Thermal shift ligand screening of R2; type: binding, Brenneria roseae; conditions: thermal shift assay, R2, arrays PM1, PM2A, PM3B, PM4A
Protocol: (§3) Assays were carried out on a MyIQ2 Real-Time PCR instrument (Bio-Rad, Hercules, CA, USA). Ligand solutions were prepared by dissolving the array compounds in 50 µL of Milli-Q water, which, according to the manufacturer, corresponds to a concentration of 10–20 mM. Freshly purified proteins were dialyzed into analysis buffer (Additional file 2: Table S4). Compound arrays PM1, PM2A (carbon sources), PM3B (nitrogen sources), and PM4A (phosphorus and sulfur sources) from Biolog (https://www.biolog.com/) were used. The compositions of these arrays are provided in Additional file 2: Table S1. The experiments were conducted in 96-well plates, and each assay mixture contained 20 µL of the dialyzed protein (at 80–50 µM), 2 µL of 5 × SYPRO orange (Life Technologies, Eugene, Oregon, USA), and 2.5 µL of the resuspended array compound or the equivalent amount of buffer in the ligand-free control. The samples were heated from 23 to 85 °C at a scan rate of 1 °C/min. The protein unfolding curves were monitored by detecting changes in SYPRO® Orange fluorescence. The Tm values were determined from the first derivative values of the raw fluorescence data.

[6] = tested on: R4 LBD (WP_158281851.1); experiment: Thermal shift ligand screening of R4; type: binding, Rivicola pingtungensis; conditions: thermal shift assay, R4, arrays PM1, PM2A, PM3B, PM4A
Protocol: as §3

[7] = tested on: P. atrosepticum SCRI1043; experiment: Quantitative capillary chemotaxis assay, wild type; type: cell-based, Pectobacterium atrosepticum; conditions: wild type SCRI1043, 1 mM ligand, 30 min
Protocol: (§4) Overnight cultures of P. atrosepticum SCRI1043 were grown at 30 °C in minimal medium. At an OD660 of 0.4–0.45, the cultures were washed twice with chemotaxis buffer (50 mM K2HPO4/KH2PO4, 20 μM EDTA, 0.05% (v/v) glycerol, pH 7.0) and diluted to an OD660 of 0.1 in the same buffer. Subsequently, 230 μL of the resulting bacterial suspension was placed into the wells of 96-well plates. One-microliter capillary tubes (P1424, Microcaps; Drummond Scientific) were heat-sealed at one end and filled with either chemotaxis buffer (negative control) or chemotaxis buffer containing PacP ligands at a concentration of 1 mM. The capillaries were immersed in the bacterial suspensions at their open ends. After 30 min at room temperature, the capillaries were removed from the bacterial suspensions, rinsed with sterile water, and the contents were expelled into 1 mL of 40 mM K2HPO4, 15 mM KH2PO4. Serial dilutions were plated onto minimal medium supplemented with 15 mM glucose as the carbon source. The number of colony-forming units was determined after 36 h of incubation at 30 °C. In all the cases, the data were corrected with the number of cells that swam into the buffer-containing capillaries.

[8] = tested on: P. atrosepticum SCRI1043 ΔcheA; experiment: Quantitative capillary chemotaxis assay, cheA mutant; type: cell-based, Pectobacterium atrosepticum; conditions: 1 mM ligand
Protocol: as §4
Fig. S2) Quantitative capillary chemotaxis assays of different P. atrosepticum SCRI1043 strains to 1 mM Glycerol 3-phosphate (A) and 3-phosphoglycerate (B). […]

[9] = tested on: Bdellovibrio bacteriovorus; design: method as in PMID 119030, PMID 500565; conditions: cited from earlier work
[10] = tested on: Bacillus subtilis; design: method as in PMID 119030, PMID 500565; conditions: cited from earlier work

LBD of chemoreceptor R4 (WP_158281851.1), sequence (A0A318KJN4 entry or part of it): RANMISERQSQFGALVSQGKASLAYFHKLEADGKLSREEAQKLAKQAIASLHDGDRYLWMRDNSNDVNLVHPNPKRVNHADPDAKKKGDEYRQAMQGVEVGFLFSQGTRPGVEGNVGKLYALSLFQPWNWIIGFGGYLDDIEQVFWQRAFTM

Row | SMILES | Kd [1] [µM] | KD [2] | KD [3] | KD ([3]; listed as Glycerol 3-P) | KD [4] | Tm change [5] | Tm change [6] | chemotaxis (capillary assay) [7] | chemotaxis (capillary assay) ([7]; listed as Glycerol 3-phosphate) | chemotaxis (capillary assay) [8] | chemotaxis [9] | chemotaxis [10]
1 | O=P(O)(O)OCC(O)CO (centres unmarked) [glycerol 3-phosphate] | 7 ± 0.2 | Nb | bound | Nb | Nb | increases in the Tm | significant increases in the Tm | significantly greater | strongest chemotaxis | failed to respond | weak chemotaxis | weak chemotaxis
2 | O=C(O)[C@@H](O)COP(=O)(O)O [3-phosphoglycerate] | 926 ± 8 | Nb | Nb |  | Nb |  |  | significantly greater |  | failed to respond | weak chemotaxis | weak chemotaxis
